In US8513161B2, “Enhancement of plant growth” (Valent Biosciences Corporation, priority 2007, dated 2013):

Tests used:
rice = assay: Pouch study of rice, imidacloprid seed treatment with PESA salt solution in pouch; assay type: in vivo; conditions: for shoot length of rice: control 3.3; for root length of rice: control 10.7
Protocol: (§1) Seed was sieved with a screen of hole size appropriate to remove broken seeds and small trash. Cracked or otherwise damaged seeds were removed. The seed was well mixed, and 50 g samples were weighed into small plastic trays. Seed treatment slurries were made by adding measured amounts of the active ingredients to sufficient water to bring them up to a standard volume, typically 2 ml. A fungicide (Maxim XL; Syngenta Agricultural Products, Greensboro, N.C.), a polymeric binder (CF-Clear; Becker-Underwood, Ames, Iowa), and a colorant (Color Coat Red; Becker-Underwood, Ames, Iowa) were also included in the slurry at label rates. A small aliquot of this slurry was applied to the seed using the Hege 11 coater (Wintersteiger, Salt Lake City, Utah) with a six-inch bowl. The slurry was deposited drop-wise on the spinning disk atomizer using a syringe.
(§2) Seeds were placed in germination pouches consisting of germination paper hydrated with sterile water that was an insert in a gas-permeable 16×14 cm plastic pouch (CYG Pouch; Mega International, St. Paul, Minn.). In these examples, in pouch solution evaluation, clothianidin and PESA sodium salt were added to the sterile water in the pouch. Alternatively, imidacloprid or dinotefuran and PESA sodium salt were added to the sterile water in the pouch. The pouches were arranged in a completely randomized block design in growth racks and placed in 19-liter polycarbonate food storage containers (Rubbermaid Commercial Products, Winchester, Va.). The sealed containers were held in an upright growth cabinet maintained at 25 C with a 12 hour light: 12 hour dark photoperiod. After 6 days, the containers were removed from the growth cabinet, and the lengths of the roots and shoot were measured.
Root lengths of the control and combination treatment of 200 grams imidacloprid/100 pounds of seed with 50 mg/liter PESA salt were similar.

cotton [1] = assay: Continuous exposure pouch study, PESA salt and imidacloprid on cotton; assay type: in vivo
Protocol: as §2, with “measured. […] Root lengths of the control and combination treatment of imidacloprid with 100 mg/liter PESA salt were similar.” for “measured.”

maize = assay: Field study, seed treatment of maize; assay type: in vivo, Zea mays
Protocol: (§3) For the field studies, the seed was treated with a seed treatment formulation containing clothianidin. The rate of clothianidin was dependent on the crop species. The seed treatment formulations were amended with the appropriate concentrations of either PESA or the sodium salt of PESA. Crops were planted and grown under standard agricultural practices, and evaluated at the times indicated. The PESA or the sodium salt of PESA was prepared as described above, and was used in seed treatment either alone or in the presence of clothianidin. Maize (Zea mays) seed was treated with 0 or 0.25 milligrams of clothianidin/seed and with 0, 22, 55, or 137.5 grams PESA salt/100 kg seed.

cotton [2] = assay: Continuous exposure pouch study, PESA salt and clothianidin on cotton; assay type: in vivo
Protocol: as §2

cotton [3] = assay: Pouch assay of cotton after PESA salt and clothianidin seed treatments; assay type: in vivo; conditions: seed treatment; for shoot length of cotton: control 3.7; for root length of cotton: control 9.6
Protocol: as §1, §2

canola = assay: Field study, seed treatment of canola; assay type: in vivo, Brassica napus
Protocol: as §3, with “The” for “The PESA or the”, “Canola (Brassica napus)” for “Maize (Zea mays)”, “400 grams” for “0.25 milligrams”, “clothianidin/100 kg (220 pound) of seed” for “clothianidin/seed”

soybean = assay: Field study, seed treatment of soybean; assay type: in vivo
Protocol: as §3, with “The” for “The PESA or the”, “Soybean” for “Maize (Zea mays)”, “50 grams” for “0.25 milligrams”, “clothianidin/100 kg (220 pound) of seed” for “clothianidin/seed”

sorghum = assay: Field study, seed treatment of sorghum; assay type: in vivo
Protocol: as §3, with “The” for “The PESA or the”, “Sorghum” for “Maize (Zea mays)”, “200 grams” for “0.25 milligrams”, “clothianidin/100 kg (220 pound) of seed” for “clothianidin/seed”

[4] = imidacloprid 200 g/100 pounds of seed alone
[5] = imidacloprid 400 g/100 pounds of seed alone
[6] = imidacloprid 800 g/100 pounds of seed alone
[7] = clothianidin 182 g/100 pounds of seed alone
[8] = clothianidin 364 g/100 pounds of seed alone

SMILES: O=[N+]([O-])N=C1NCCN1Cc1ccc(Cl)nc1 [Imidacloprid, (EZ)-1-(6-chloro-3-pyridylmethyl)-N-nitroimidazolidin-2-ylideneamine]
- shoot length of rice (rice; [4]): 3.6 cm
- root length of rice (rice; [4]): 9.6 cm
- shoot length of rice (rice; [5]): 3.3 cm
- root length of rice (rice; [5]): 8.9 cm
- shoot length of rice (rice; [6]): 3.6 cm
- root length of rice (rice; [6]): 8.3 cm
- effect on rice root length (rice; seed treatment with imidacloprid alone): decreased the root length in a dose-dependent manner
- effect on cotton root length (cotton [1]; continuous exposure pouch, imidacloprid 1000 mg/liter alone): decreased root length
- effect on cotton shoot length (cotton [1]; imidacloprid alone): not affected
- shoot length of cotton (cotton [1]; in pouch, imidacloprid 1000 mg/liter alone, control 6.2): 6.0 cm
- root length of cotton (cotton [1]; in pouch, imidacloprid 1000 mg/liter alone, control 13.3): 7.7 cm

SMILES: O=C(O)CCC(=O)NCCc1ccccc1 [PESA, N-(2-phenylethyl)succinamic acid]
- safening of maize (maize; conclusion from Table 12): safened maize against clothianidin-induced vigor reduction

SMILES: CN/C(=N\[N+](=O)[O-])NCc1cnc(Cl)s1 [Clothianidin, (E)-1-(2-chloro-1,3-thiazol-5-ylmethyl)-3-methyl-2-nitroguanidine, reference compound]
- effect on cotton root length (cotton [2]; continuous exposure pouch, substance alone): decreased the length of the root
- effect on cotton shoot length (cotton [2]; continuous exposure pouch, clothianidin alone): not affected
- shoot length of cotton (cotton [2]; in pouch, clothianidin 1000 mg/liter alone, control 6.1): 6.1 cm
- root length of cotton (cotton [2]; in pouch, clothianidin 1000 mg/liter alone, control 11.4): 8.9 cm
- effect on cotton shoot length (cotton [3]; Table 2): increased cotton shoot length
- shoot length of cotton (cotton [3]; [7]): 4.1 cm
- root length of cotton (cotton [3]; [7]): 7.8 cm
- shoot length of cotton (cotton [3]; [8]): 4.2 cm
- root length of cotton (cotton [3]; [8]): 7.9 cm
- effect on cotton root length (cotton [3]; clothianidin alone 182 or 364 g/100 pounds of seed): reduced cotton root length
- vigor rating (1 = low and 5 = high) of canola plants (canola; 19 days after planting, clothianidin 400 g/100 kg seed alone, control 3.8): 2.5
- effect on canola plant vigor (canola; clothianidin alone, 400 g/100 kg seed): reduced plant vigor as compared to the control
- average plant height of soybean (soybean; 66 days after planting, clothianidin 50 g/100 kg seed alone, control 23.8): 21.6 inches
- effect on soybean plant height (soybean; clothianidin alone, 50 g/100 kg seed): reduced plant height as compared to the control
- vigor rating of maize plants, Vigor (1-5) (maize; 27 days after planting, clothianidin 0.25 mg/seed alone, control 3.6): 3.1
- effect on maize plant vigor (maize; clothianidin alone, 0.25 mg/seed): reduced plant vigor as compared to the control
- root dry weight of a sample of 10 sorghum plants (sorghum; 73 days after planting, clothianidin 200 g/100 kg seed alone, control 148.5): 108.7 grams
- effect on sorghum root dry weight (sorghum; clothianidin alone, 200 g/100 kg seed): reduced root dry weight as compared to the control
